Results: US10647713B2 (Nimbus Lakshmi, Inc., priority 2016, dated 2020)

These compounds were tested against human TYK2 (JH2domain-pseudokinase) (Homo sapiens (Human), UniProt P29597) (assay: TYK2 JH2 Domain Binding Assay (KINOMEscan, DiscoveRx)). Settings: 11-point dilution, duplicate.
Procedure, shortened: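 TYK2 JH2 (G556–D888)–NFkB DBD fusion, DNA-tagged, from HEK293 extracts (<0.1 nM) competed against immobilised biotinylated ligand for 1 h at room temperature, 0.9% DMSO. Bead-retained kinase quantified by qPCR; Kd from 11-point 3-fold series (top 30,000 nM, duplicate), Hill fit with slope −1.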

Chain of human TYK2 (JH2domain-pseudokinase) (P29597 556-888): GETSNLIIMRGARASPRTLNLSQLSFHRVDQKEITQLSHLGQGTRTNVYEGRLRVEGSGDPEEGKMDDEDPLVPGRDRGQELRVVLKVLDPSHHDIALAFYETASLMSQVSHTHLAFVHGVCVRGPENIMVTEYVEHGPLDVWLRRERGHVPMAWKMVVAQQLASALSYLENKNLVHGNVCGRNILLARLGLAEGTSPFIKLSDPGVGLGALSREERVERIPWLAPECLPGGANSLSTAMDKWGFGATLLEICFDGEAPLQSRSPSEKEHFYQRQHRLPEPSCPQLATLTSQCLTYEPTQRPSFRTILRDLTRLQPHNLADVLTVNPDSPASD

Kd [nM]	Compound
1 to 10	CO[C@@H](C)c1ccc(Nc2cc(NC(=O)C3CC3)nc3[nH]c(C(F)F)nc23)c(S(C)(=O)=O)c1 [I-455, (S)—N-(2-(difluoromethyl)-7-((4-(1-methoxyethyl)-2-(methylsulfonyl)phenyl)amino)-3H-imidazo[4,5-b]pyridin-5-yl)cyclopropanecarboxamide]
< 0.1	COCCOc1ccc(Nc2cc(Nc3ccccc3S(C)(=O)=O)c3nc(C(F)F)[nH]c3n2)nc1C#N [I-619, 6-((2-(difluoromethyl)-7-((2-(methylsulfonyl)phenyl)amino)-3H-imidazo[4,5-b]pyridin-5-yl)amino)-3-(2-methoxyethoxy)picolinonitrile]
< 0.1	CS(=O)(=O)c1ccccc1Nc1cc(Nc2cc3c(nn2)CCC3)nc2[nH]c(C(F)F)nc12 [I-392]
0.1 to 0.5	Cn1ccc(-c2ccc(Nc3cc(NC(=O)[C@@H]4C[C@@H]4F)nc4[nH]c(C(F)F)nc34)c(S(C)(=O)=O)c2)n1 [I-210, (1S,2S)—N-(2-(difluoromethyl)-7-((4-(1-methyl-1H-pyrazol-3-yl)-2-(methylsulfonyl)phenyl)amino)-3H-imidazo[4,5-b]pyridin-5-yl)-2-fluorocyclopropane-1-carboxamide]
0.1 to 0.5	Cc1cnn(-c2ccc(Nc3cc(NC(=O)C4CC4)nc4[nH]c(C(F)F)nc34)c(N(C)S(C)(=O)=O)c2)c1 [I-135, N-(2-(difluoromethyl)-7-((4-(4-methyl-1H-pyrazol-1-yl)-2-(N-methylmethylsulfonamido)phenyl)amino)-3-imidazo[4,5-b]pyridin-5-yl)cyclopropanecarboxamide]
< 0.1	Cc1nc2c(Nc3ccc([C@H]4CCCO4)cc3S(C)(=O)=O)cc(Nc3cccc(C#N)n3)nc2[nH]1 [I-569, (R)-6-((2-methyl-7-((2-(methylsulfonyl)-4-(tetrahydrofuran-2-yl)phenyl)amino)-3H-imidazo[4,5-b]pyridin-5-yl)amino)picolinonitrile]
0.1 to 0.5	CC1(C)CC[C@@H](c2ccc(Nc3cc(NC(=O)C4CC4)nc4[nH]c(C(F)F)nc34)c(S(C)(=O)=O)c2)OC1 [I-353]
0.1 to 0.5	COc1c(Nc2cc(NC(=O)[C@@H]3C[C@@H]3F)nc3[nH]c(C(F)F)nc23)cccc1-c1ncn(C)n1 (stereo in doubt) [I-213, N-(2-(difluoromethyl)-7-((2-methoxy-3-(1-methyl-1H-1,2,4-triazol-3-yl)phenyl)amino)-3H-imidazo[4,5-b]pyridin-5-yl)-2-fluorocyclopropane-1-carboxamide]
0.1 to 0.5	Cc1cc(Nc2cc(Nc3ccc(-c4c(C)nn(C)c4C)cc3S(C)(=O)=O)c3nc(C)[nH]c3n2)nc(C)n1 [I-344]
0.1 to 0.5	Cc1nc2c(Nc3ccc(-c4ncc(C)n4C)cc3S(C)(=O)=O)cc(NC(=O)C3CC3)nc2[nH]1 [I-462, N-(7-((4-(1,5-dimethyl-1H-imidazol-2-yl)-2-(methylsulfonyl)phenyl)amino)-2-methyl-3H-imidazo[4,5-b]pyridin-5-yl)cyclopropanecarboxamide]
0.1 to 0.5	Cc1nc2c(Nc3ccc(-c4nn(C)cc4C)cc3S(C)(=O)=O)cc(NC(=O)[C@@H]3C[C@@H]3F)nc2[nH]1 [I-262, (1S,2S)—N-(7-((4-(1,4-dimethyl-1H-pyrazol-3-yl)-2-(methylsulfonyl)phenyl)amino)-2-methyl-3H-imidazo[4,5-b]pyridin-5-yl)-2-fluorocyclopropane-1-carboxamide]
< 0.1	Cc1cc(Nc2cc(Nc3ccc([C@H]4CCCCO4)cc3S(C)(=O)=O)c3nc(C(F)F)[nH]c3n2)nc(C)n1 [I-494, (R)-2-(difluoromethyl)-N5-(2,6-dimethylpyrimidin-4-yl)-N7-(2-(methylsulfonyl)-4-(tetrahydro-2H-pyran-2-yl)phenyl)-3H-imidazo[4,5-b]pyridine-5,7-diamine]
1 to 10	Cc1cc(-c2ccc(Nc3cc(NC(=O)[C@H]4CC4(F)F)nc4[nH]c(C(F)F)nc34)c(S(C)(=O)=O)c2)nn1C [I-314, (R)—N-(2-(difluoromethyl)-7-((4-(1,5-dimethyl-1H-pyrazol-3-yl)-2-(methylsulfonyl)phenyl)amino)-3H-imidazo[4,5-b]pyridin-5-yl)-2,2-difluorocyclopropane-1-carboxamide]
< 0.1	Cc1cc(Nc2cc(Nc3ccc(-c4cc(C)n(C)n4)cc3S(C)(=O)=O)c3nc(C)[nH]c3n2)nc(C)n1 [I-509, N7-(4-(1,5-dimethyl-1H-pyrazol-3-yl)-2-(methylsulfonyl)phenyl)-N5-(2,6-dimethylpyrimidin-4-yl)-2-methyl-3H-imidazo[4,5-b]pyridine-5,7-diamine]
< 0.1	CCOc1ccc(Nc2cc(Nc3ccccc3S(C)(=O)=O)c3nc(C)[nH]c3n2)nc1C#N [I-525]
0.5 to 1	COc1c(Nc2cc(Nc3ccc4c(n3)CCOC4)nc3[nH]c(C(F)F)nc23)cccc1-c1cnn(C)n1 [I-646]
0.1 to 0.5	CN(c1cc([C@H]2CCCCO2)ccc1Nc1cc(NC(=O)C2CC2)nc2[nH]c(C(F)F)nc12)S(C)(=O)=O [I-218, (R)—N-(2-(difluoromethyl)-7-((2-(N-methylmethylsulfonamido)-4-(tetrahydro-2H-pyran-2-yl)phenyl)amino)-3H-imidazo[4,5-b]pyridin-5-yl)cyclopropanecarboxamide]
> 10	Cc1nc2c(Nc3ccc(C4CCC4)cc3S(C)(=O)=O)cc(NC(=O)[C@H]3CC3(F)F)nc2[nH]1 [I-412, (R)—N-(7-((4-cyclobutyl-2-(methylsulfonyl)phenyl)amino)-2-methyl-3H-imidazo[4,5-b]pyridin-5-yl)-2,2-difluorocyclopropane-1-carboxamide]
1 to 10	Cc1nc2c(Nc3ccc([C@H]4CCCO4)cc3S(C)(=O)=O)cc(NC(=O)[C@H]3CC3(F)F)nc2[nH]1 [I-423, (R)-2,2-difluoro-N-(2-methyl-7-((2-(methylsulfonyl)-4-((R)-tetrahydrofuran-2-yl)phenyl)amino)-3H-imidazo[4,5-b]pyridin-5-yl)cyclopropane-1-carboxamide]
1 to 10	COc1c(Nc2cc(Nc3cncc(C#N)n3)nc3[nH]c(C(F)F)nc23)cccc1-c1nnn(C)n1 [I-30, 6-((2-(difluoromethyl)-7-((2-methoxy-3-(2-methyl-2H-tetrazol-5-yl)phenyl)amino)-3H-imidazo[4,5-b]pyridin-5-yl)amino)pyrazine-2-carbonitrile]
1 to 10	COc1c(Nc2cc(Nc3cnc(C)c(C#N)n3)nc3[nH]c(C)nc23)cccc1-c1nnn(C)n1 [I-111, 6-((7-((2-methoxy-3-(2-methyl-2H-tetrazol-5-yl)phenyl)amino)-2-methyl-3H-imidazo[4,5-b]pyridin-5-yl)amino)-3-methylpyrazine-2-carbonitrile]
0.1 to 0.5	COCc1ccc(Nc2cc(NC(=O)C3CC3)nc3[nH]c(C(F)F)nc23)c(S(C)(=O)=O)c1 [I-222, N-(2-(difluoromethyl)-7-((4-(methoxymethyl)-2-(methylsulfonyl)phenyl)amino)-3H-imidazo[4,5-b]pyridin-5-yl)cyclopropanecarboxamide]
0.1 to 0.5	Cc1nc2c(Nc3ccc(C4CC4)cc3S(C)(=O)=O)cc(Nc3cnc(C)c(C)n3)nc2[nH]1 [I-435, N7-(4-cyclopropyl-2-(methylsulfonyl)phenyl)-N5-(5,6-dimethylpyrazin-2-yl)-2-methyl-3H-imidazo[4,5-b]pyridine-5,7-diamine]
0.1 to 0.5	Cc1nc2c(Nc3ccccc3N(C)S(C)(=O)=O)cc(Nc3cccc(C(F)(F)F)n3)nc2[nH]1 [I-127, N-methyl-N-(2-((2-methyl-5-((6-(trifluoromethyl)pyridin-2-yl)amino)-3H-imidazo[4,5-b]pyridin-7-yl)amino)phenyl)methanesulfonamide]
0.1 to 0.5	Cc1nc2c(Nc3ccc(-c4cn(C)cn4)cc3S(C)(=O)=O)cc(NC(=O)[C@H]3CC3(F)F)nc2[nH]1 [I-227, (R)-2,2-difluoro-N-(2-methyl-7-((4-(1-methyl-1H-imidazol-4-yl)-2-(methylsulfonyl)phenyl)amino)-3H-imidazo[4,5-b]pyridin-5-yl)cyclopropane-1-carboxamide]

Compound	Kd [nM]
COCCNc1ccc(Nc2cc(Nc3ccccc3N(C)S(C)(=O)=O)c3nc(C(F)F)[nH]c3n2)nc1C#N [I-295, N-(2-((5-((6-cyano-5-((2-methoxyethyl)amino)pyridin-2-yl)amino)-2-(difluoromethyl)-3H-imidazo[4,5-b]pyridin-7-yl)amino)phenyl)-N-methylmethane sulfonamide]	0.1 to 0.5
Cc1nc2c(Nc3ccc(C4CCC(C)(C)CO4)cc3S(C)(=O)=O)cc(NC(=O)C3CC3)nc2[nH]1 (stereo not shown) [I-536, N-(7-((4-(5,5-dimethyltetrahydro-2H-pyran-2-yl)-2-(methylsulfonyl)phenyl)amino)-2-methyl-3H-imidazo[4,5-b]pyridin-5-yl)cyclopropanecarboxamide]	< 0.1
Cc1cnc(-c2ccc(Nc3cc(NC(=O)C4CC4)nc4[nH]c(C(F)F)nc34)c(S(C)(=O)=O)c2)s1 [I-304, N-(2-(difluoromethyl)-7-((2-(methylsulfonyl)-4-(5-methylthiazol-2-yl)phenyl)amino)-3H-imidazo[4,5-b]pyridin-5-yl)cyclopropanecarboxamide]	0.5 to 1
Cc1nc2c(Nc3ccc([C@H]4COCCO4)cc3S(C)(=O)=O)cc(NC(=O)C3CC3)nc2[nH]1 [I-612, (S)—N-(7-((4-(1,4-dioxan-2-yl)-2-(methylsulfonyl)phenyl)amino)-2-methyl-3H-imidazo[4,5-b]pyridin-5-yl)cyclopropanecarboxamide]	0.1 to 0.5
Cc1nc2c(Nc3ccc(-c4cn(C)nc4C)cc3N(C)S(C)(=O)=O)cc(NC(=O)C3CC3)nc2[nH]1 [I-194, N-(7-((4-(1,3-dimethyl-1H-pyrazol-4-yl)-2-(N-methylmethylsulfonamido)phenyl)amino)-2-methyl-3H-imidazo[4,5-b]pyridin-5-yl)cyclopropanecarboxamide]	> 10
Cc1nc2c(Nc3ccc(-c4nc(C)sc4C)cc3S(C)(=O)=O)cc(NC(=O)C3CC3)nc2[nH]1 [I-488, N-(7-((4-(2,5-dimethylthiazol-4-yl)-2-(methylsulfonyl)phenyl)amino)-2-methyl-3H-imidazo[4,5-b]pyridin-5-yl)cyclopropanecarboxamide]	< 0.1
